Among the test systems are M14 melanoma; SN12C renal; SK-MEL-5 melanoma; HOP-62 NSCLC; OVCAR-5 ovarian; SF-539 CNS; NCI-H522 lung; HCT-116 colon; LOX IMVI melanoma; MDA-MB-231 breast.
Holding throughout (assay): DTP human tumour cell line panel, 48 h

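Tested at 5 concentrations; 48 h exposure; 96-well plates; endpoints linearly interpolated, else capped at highest concentration. Definition used: TGI = concentration required for complete inhibition of growth.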

As usually defined, the TGI is the concentration at which net growth stops. Read a low TGI as greater sensitivity of the cells. Consider `CC(C)C(Nc1c2ccccc2[n+](C)c2ccccc12)C(=O)O` (stereo not drawn), for which the TGI with M14 melanoma, in the assay with SN12C renal, with SK-MEL-5 melanoma, in the assay with HOP-62 NSCLC, in the assay with OVCAR-5 ovarian and with SF-539 CNS was more than 100 µM throughout. The TGI with NCI-H522 lung and in the assay with HCT-116 colon was more than 100 µM each time.
For the compound `CN1CCN(Cc2ccc(C(=S)Nc3ccccc3)s2)CC1`, the TGI in the assay with M14 melanoma was 31.9 µM; in the assay on SK-MEL-5 melanoma it was 34.1 µM; in the assay with HOP-62 NSCLC, more than 100 µM; in the assay on OVCAR-5 ovarian, more than 100 µM; in the assay with SF-539 CNS, more than 100 µM; in the assay on NCI-H522 lung it was more than 100 µM. For the same compound, the TGI with LOX IMVI melanoma was 31.9 µM; in the assay with HCT-116 colon it was more than 100 µM.
Consider `N#Cc1nc(-c2ccsc2)oc1N`, for which the TGI with M14 melanoma, in the assay on SN12C renal, in the assay with SK-MEL-5 melanoma, in the assay with HOP-62 NSCLC, with MDA-MB-231 breast and in the assay on OVCAR-5 ovarian was more than 100 µM in each case. For the same compound, the TGI in the assay with LOX IMVI melanoma and in the assay on HCT-116 colon was more than 100 µM each time.
`CCCCCCCCCCCCCCCC[N+](C)(C)CCl`: the TGI in the assay on M14 melanoma amounted to 6.38 µM; with SN12C renal, 12.8 µM; with SK-MEL-5 melanoma, 2.94 µM; in the assay with HOP-62 NSCLC, 6.69 µM; in the assay with MDA-MB-231 breast it was 4.32 µM; in the assay with OVCAR-5 ovarian, 21.6 µM. For the same compound, the total growth inhibition concentration (TGI) in the assay with SF-539 CNS came out at 8.13 µM; in the assay with HCT-116 colon, 4.98 µM.
As for `Cc1cc(C)c(C2=NO[C@@H]3[C@H]2C(=O)C=C2N(Cc4ccccc4)CCO[C@@]23O)c(C)c1`, the TGI in the assay with SN12C renal, in the assay with SK-MEL-5 melanoma, with HOP-62 NSCLC, with OVCAR-5 ovarian, in the assay with SF-539 CNS and in the assay on NCI-H522 lung was more than 100 µM throughout. Moreover, the TGI in the assay on LOX IMVI melanoma and with HCT-116 colon was more than 100 µM each time.
For `COc1cc(C2C3=C(NC(=O)C2C#N)c2ccc4ccccc4c2OCC3)cc(OC)c1OC` (stereo not drawn), the TGI in the assay with M14 melanoma was more than 100 µM; in the assay with SN12C renal, 38.9 µM; in the assay with SK-MEL-5 melanoma, more than 100 µM; with HOP-62 NSCLC it was 50.5 µM; with OVCAR-5 ovarian it was 42.3 µM; with SF-539 CNS, 42.3 µM. Further, the figures for the TGI in the assay on NCI-H522 lung and in the assay on HCT-116 colon were more than 100 µM and 29.1 µM, respectively.
`Nc1ncnc2c1ncn2C1C(O)C=C(CO)C1O` (stereo not drawn): the TGI in the assay with SN12C renal, in the assay with SK-MEL-5 melanoma, with HOP-62 NSCLC, with SF-539 CNS, in the assay with LOX IMVI melanoma and with HCT-116 colon was more than 625 µM throughout.
Regarding `CC1OC23CCCCC2C(C#N)(C#N)C1(C#N)C(=N)O3` (stereo not drawn), the TGI was 40.3 µM in the assay with M14 melanoma; 30.1 µM with SN12C renal; 32.3 µM with SK-MEL-5 melanoma; 32.1 µM in the assay with MDA-MB-231 breast; 52.6 µM in the assay with OVCAR-5 ovarian; 45.1 µM in the assay with SF-539 CNS. In addition, the figures for the TGI in the assay on LOX IMVI melanoma and in the assay with HCT-116 colon were 40.2 µM and 36.2 µM, respectively.
As for `CCOC(=O)CCC(C(=O)OCC)n1nnc2cc(Nc3c(C)[n+]([O-])c4cc(Cl)ccc4[n+]3[O-])ccc21` (stereo not drawn), the TGI with M14 melanoma, in the assay with SN12C renal, in the assay with SK-MEL-5 melanoma, with HOP-62 NSCLC, in the assay with OVCAR-5 ovarian and in the assay on SF-539 CNS was more than 100 µM throughout. Moreover, the TGI with NCI-H522 lung, with LOX IMVI melanoma and with HCT-116 colon was more than 100 µM each time.
For `CCOC(=O)CC1C(C(=O)OCC)=Cn2c([nH]c3cccc4cccc2c43)=C1C(=O)OCC` (stereo not drawn), the TGI in the assay with M14 melanoma, in the assay on SN12C renal, with SK-MEL-5 melanoma, in the assay on HOP-62 NSCLC, in the assay on OVCAR-5 ovarian and in the assay on LOX IMVI melanoma was more than 100 µM each time. In the assay on HCT-116 colon, this compound gave a TGI of more than 100 µM.
For `C/C(=C\C(=O)O)C(=O)N(C)c1ccccc1I`, the TGI in the assay on M14 melanoma, in the assay on SN12C renal, in the assay with SK-MEL-5 melanoma, in the assay with HOP-62 NSCLC, with MDA-MB-231 breast and in the assay on OVCAR-5 ovarian was more than 100 µM in each case. In addition, the TGI in the assay with LOX IMVI melanoma and in the assay with HCT-116 colon was more than 100 µM in each case.
For the compound `COc1cc(CNc2nc3c(NC(C)=O)cc(C(F)(F)F)cc3nc2-c2ccccc2)cc(OC)c1OC`, the TGI in the assay on SN12C renal, in the assay on SK-MEL-5 melanoma, in the assay with HOP-62 NSCLC, in the assay on OVCAR-5 ovarian, with SF-539 CNS and with NCI-H522 lung was more than 100 µM throughout. The TGI with LOX IMVI melanoma and in the assay on HCT-116 colon was more than 100 µM each time.
Consider `CC1(c2ccc(Cl)cc2)c2ccccc2C(=O)N1CCCN1C(=O)c2ccccc2C1=O` (stereo not drawn), for which the TGI with SN12C renal is more than 100 µM; in the assay with SK-MEL-5 melanoma, 31 µM; with HOP-62 NSCLC, more than 100 µM; in the assay with MDA-MB-231 breast, more than 100 µM; with LOX IMVI melanoma it was 47.5 µM; in the assay on HCT-116 colon, 37.6 µM.
Regarding `Cc1cc(Br)c(O)c(-c2cscn2)c1`, the TGI in the assay with M14 melanoma is 44 µM; in the assay with SN12C renal it was 23.6 µM; with SK-MEL-5 melanoma, 30.5 µM; in the assay with HOP-62 NSCLC, 41.2 µM; in the assay with OVCAR-5 ovarian, 36.4 µM; with SF-539 CNS, 37.3 µM. Further, the TGI was determined as 23.1 µM with LOX IMVI melanoma and 25.2 µM in the assay with HCT-116 colon.

These data come from PubChem BioAssay (NCI).
